Data taken from US12163156B2, “Cell induction method” (INSTITUTE OF ZOOLOGY, CHINESE ACADEMY OF SCIENCES, priority 2018, dated 2024).

Assays:
ICR female mice = assay: In vivo experiment: ventral fat content after injection into the ventral side of mice; parameters: species or system mouse; conditions: 0.5 mg/kg injected into the ventral side once a day; for ventral fat content: 19 days, drug stopped for 32 days, vs DMSO group
Description: In vivo experiment: the same batch of 6-8 week-old ICR female mice are selected and randomly divided into two groups, 5 in each group. As to one group, small molecule (−)-Blebbistatin or (S)-(−)-Blebbistatin O-Benzoate (0.5 mg/kg, dissolved in 10% DMSO+2% Tween 80+normal saline) is injected into the ventral side of the mice; as to the other group, the same amount of DMSO as the small molecule group is injected in the same way as the experimental group. The injection is performed once a day, 19 days after the injection, and the drug is stopped for 32 days. The mice are sacrificed by cervical dislocation, and the ventral fat content is observed.

[1] = test system: human embryonic hepatocytes; assay: In vitro amplification of human embryonic hepatocytes; assay type: cell-based; conditions: for cells amplified (multiple): 12 days subculturing (3 generations in total)
Description: (1) Coating the plate. The cell culture plate is coated with rat tail tendon collagen (Thermo scientific, A1048301, 3 mg/mL) at a concentration of […]. Taking a 24-well plate as an example, the bottom area of each hole is 1.9 cm^2, and […] is needed per well (about 3.2 μl); 3.2 μl of rat tail tendon collagen is dissolved in 500 μl of 20 mM glacial acetic acid, adding to the well to incubate in cell culture incubator at 37° C. for 1 h, and after aspirating and abandoning the solution, washing with PBS for 3 times.
(2) Resuscitation of human embryonic hepatocytes. Human embryonic hepatocytes are taken out from liquid nitrogen tanks (freezing date: Jan. 15, 2014; freezing medium: cell banker 2; the number of frozen cells: 2×10^7/tube), quickly placing in a 37° C. water bath, immediately after thawing the cells are sucked into a 15 mL centrifuge tube containing 5 mL of hepatocyte medium (control group), then centrifuging at 50 g, 4° C. for 5 min. The supernatant is discarded, then the cells are resuspended in 500 μl of hepatocyte medium with the number of 1.16×10^6 cells, and the cell resuscitation rate is 5.8%.
(3) Seeding the human embryonic hepatocytes. […] After hepatocyte medium containing 10 μM small molecule (−)-Blebbistatin, and hepatocyte medium containing 20 μM small molecule (−)-Blebbistatin hepatocyte medium are respectively seeded 24 h, for each group the digested cells from 3 wells are counted to calculate the cell attachment rate. After seeding for 72 h, for each group 3 wells of cells are digested and counted. […] A portion of the cells per well (⅖ of the cells counted) are taken for RNA extraction to detect the expression of human hepatocyte-associated genes.
(4) The first passage of human embryonic hepatocytes. […] A portion of the cells per well (⅖ of the cells counted) are taken for RNA extraction to detect the expression of human hepatocyte-associated genes.
(5) The second passage of human embryonic hepatocytes. […] The medium is changed every 2 days, and after continuing to culture for 144 h (6 days), the cells are digested and counted. […]

adult hepatocytes = assay: Small molecule amplification of adult hepatocytes; assay type: cell-based, human; conditions: for number of cells after 6 days of culturing: control group 1.59×10^4
Description: (1) The method for coating the plate is as described above.
(2) Resuscitation and culture of adult hepatocytes. Adult hepatocytes (M00995-P […] human, Bioreclamation IVT) are taken out from a liquid nitrogen tank, then quickly placing in a 37° C. water bath, after thawing the cells are added to 5 mL of 37° C. pre-heated hepatocyte inoculation medium (InVitroGRO CP Medium), after counting the cells are inoculated in a 24-well plate at the density of 9×10^4/well, 2-4 h after hepatocyte adherence, aspirating and abandoning the hepatocyte inoculation medium, and respectively adding hepatocyte culture control medium, 10 μm small molecule medium, and 20 μm small molecule medium. The media are changed every 2 days. The number of cells is estimated from the photograph on day 2. After 4 days, the cells of the 20 μm small molecule medium group are changed to culture in 10 μm small molecule medium. The cells are counted after co-culturing for 6 days. A portion of the cells are taken for RNA extraction to detect the expression of human hepatocyte-specific genes.
(3) Passage of adult hepatocytes. 4.7×10^4 of the hepatocytes cultured in the above-mentioned control group, and 8×10^4 of the hepatocytes cultured 10 μm small-molecule medium are respectively re-inoculated into the 24-well plates coated with rat tail tendon collagen, and the media are changed every two days. After 6 days, photos are taken to record cell growth.

[2] = test system: mouse adult primary hepatocytes; assay: In vitro amplification of mouse adult primary hepatocytes (Alb-GFP)
Description: Alb-Cre mice are introduced from BRL Medicine, Cre recombinase is only expressed in mature hepatocytes expressing albumin; Rosa26/mTmG mice are introduced from Charles River, and a red and green fluorescence reporter system is incorporated into the Rosa26 locus of this kind of mouse; normally a tomato red fluorescent protein is expressed in the cells, while in the case of Cre recombination it is changed to express a green fluorescent protein (GFP). Alb-Cre adult mice are hybridizedwith Rosa26/mTmG mice to obtain offspring Alb-Cre×Rosa26/mTmG mice, and mature hepatocytes of the offspring are labeled green, and other tissue cells present the red fluorescent.
Alb-Cre×Rosa26/mTmG adult mice are sacrificed by cervical dislocation, taking out the hepatic lobes, cutting into small pieces, blowing and washing repeatedly with 100 volumes of pre-cooled PBS to remove the blood cells until the washing solution is not red; adding 3-5 volumes of collagenase IV (ThermoFisher, 17104019, preheated at 37° C.) to digest in incubator at 37° C. for 30-40 min, and blowing 2-3 times during the digestion, then centrifuging and removing the supernatant. […] The mouse hepatocyte medium comprises: DMEM/F12 (gibco, 10565018), adding N2 additive (100×, Gibco, 17502048), B27 additive (50×, Gibco, 17504044), 5% bovine serum albumin (1000×, Sigma, A8022), β-mercaptoethanol (1000×, Gibco, 21985023), GlutaMAX (200×, Gibco, 35050-061), non-essential amino acids (100×, Gibco, 11140-050), 1 μg/mL insulin (Roche, 11376497001), hepatocyte growth factor (10 ng/mL, R&D, 294-HG-025), transforming growth factor β inhibitor A83-01 (5 μm, stemgent, 04-0014), glycogen synthase kinase 3β inhibitor Chir99021 (6 μM, stemgent, 04-0004-10), macrophage stimulating protein 1 and 2 inhibitor XMU-MP-1 (2-5 μM, MCE, HY-100526) fibroblast growth factor 4 (10 ng/mL, R&D, 5846-f4-025), double antibiotics.
Without addition of Myosin II inhibitor (−)-Blebbistatin or (S)-(−)-Blebbistatin O-Benzoate, an equal volume of DMSO is added as a control, and the cells are respectively subcultured 3 times (P3), 5 times (P5), and seven times (P7).

CYP1A2 gene = CYP1A2 gene induction with omeprazole in small molecule-amplified adult hepatocytes; assay type: cell-based, human; conditions: 50 μm omeprazole in 10 μm small molecule medium, 48 hours, vs DMSO
Description: (4) 10CYP1A2 adult hepatocytes amplified in 10 μm small medium. 3×10^5 hepatocytes are induced and inoculated in a 24-well plate coated with rat tail tendon collagen, after culturing in a 10 μm small molecule medium for 24 h, then replacing the medium with a 10 μm small molecule medium with 50 μm omeprazole, the control group is a 10 μm small molecule medium containing DMSO, and 48 hours later the cells are collected to detect the expression of the CYP1A2 gene.

[3] = test system: Mouse embryonic fibroblasts; assay: Transdifferentiation of mouse embryonic fibroblasts into adipocytes, oil red O staining; assay type: cell-based; conditions: 10 μM added to the original adipocyte induction medium (Myosin inhibitor + BMP4); P<0.001
Description: Taking a 12-well plate as an example (coming, 3335), for each well, preparing 20 μg/ml Matrigel solution (BD, 354277) with 1×DMEM and coating for 12 hours; then the coating solution is removed, washing with 1×PBS. Mouse embryonic fibroblasts (C57, prepared by E13.5) or adult foreskin fibroblasts (HFF20y, Beijing Stem Cell Bank) are uniformly seeded in each well, 1×10^4 cells per well; incubating in basic medium (high glucose DMEM (Gibco, C12430500BT), double antibiotics) added with 10% fetal bovine serum (Gibco, 16000-044) for 24 hours. The medium is removed, then washing with PBS. […] The identification of adipocytes is performed by oil red staining of cells, oil red O staining solution (cell-specific, Solarbio, […]) is used, and the details are as follows: removing the medium, adding ORO Fixative to fix for 10-15 min, removing the ORO Fixative, and placing in flowing air for 10-15 min. At this time, ORO Stain is prepared in a ratio of ORO Stain A:ORO Stain B=3:2, standing for 10 min after mixing, then adding to the well; the staining solution is removed after dip dyeing for 15 min, adding 60% isopropanol to rinse for 20-30 s, and washing with distilled water for 3 times, then taking photos under an optical microscope. The neutral fats are orange-red or orange-colored, and the phospholipids are pink.

Cc1ccc2c(c1)C(=O)C1(O)CCN(c3ccccc3)C1=N2 (single isomer, unassigned; (-)) [(−)-Blebbistatin]
ventral fat content (ICR female mice): significantly increase | ventral fat content (ICR female mice; listed as Ble): significant increase | human hepatocyte-specific genes albumin and alpha-fetoprotein expression ([1]; 10 μM and 20 μM small molecule media, 12 days subculturing, real-time quantitative PCR): still expressed | cells amplified (multiple) ([1]; 10 μM small molecule medium): about 22.1 times | cells amplified (multiple) ([1]; 20 μM small molecule medium): about 13.0 times | number of cells after 6 days of culturing (adult hepatocytes; 10 μm group): 6.47×10^4 (SD=1.24) | subculture of human hepatocytes (adult hepatocytes; 10 μm small molecule medium, control medium cannot): can make human hepatocytes subculture | number of cells after 6 days of culturing (adult hepatocytes; # group: 20 μm for 4 days then 10 μm for 2 days): 9.47×10^4 (SD=0.98) | expression of human hepatocyte specific genes albumin, AFP, CYP1A2, CYP3A4 (adult hepatocytes; adult hepatocytes amplified with small molecules): still express | expression of the proliferating cell nuclear antigen (PCNA) gene (adult hepatocytes; small molecule group vs control group): significantly higher | amplification effect on adult hepatocytes (cell number day 6 / day 2) (adult hepatocytes; small molecule groups vs control): significant amplification effect | hepatocyte clusters with Alb expression ([2]; 5 μM in mouse hepatocyte medium, fibronectin-coated dish, one week): green hepatocyte clusters with Alb expression are observed | subculturing in vitro ([2]; mouse hepatocytes in medium with Myosin inhibitor): at least 20 generations | long-term amplification of AlB-GFP-positive hepatocytes ([2]; vs DMSO control, subcultured P3, P5, P7): significantly promotes

COc1ccc2[nH]c([S+]([O-])Cc3ncc(C)c(OC)c3C)nc2c1 (stereo not shown) [omeprazole]
expression of CYP1A2 gene (CYP1A2 gene): can be increased

NC(=O)c1ccc(-c2nc(-c3ccc4c(c3)OCO4)c(-c3ccccn3)[nH]2)cc1 [SB431542]
adipocyte induction efficiency [3]: 18%

Cc1ccc2c(c1)C(=O)[C@]1(OC(=O)c3ccccc3)CCN(c3ccccc3)C1=N2 [(S)-(−)-Blebbistatin O-Benzoate]
ventral fat content increase (ICR female mice; without optimization): about 50% | passaged in vitro ([2]; treated mouse hepatocytes): more than 20 times

Cc1cccc(-c2nn(C(=S)Nc3ccccc3)cc2-c2ccnc3ccccc23)n1 [A83-01]
adipocyte induction efficiency [3]: up to 20%
